Where “and” joins values, the source holds several entries; their conditions need not be identical. Equal entries are not always repeated.
What was measured:
[1] = system: Rattus norvegicus; conditions: oral
[2] = system: Rattus norvegicus; conditions: acute; oral; Sprague-Dawley
[3] = system: Rattus norvegicus; conditions: oral, gavage, Sprague-Dawley; for NOEL: short-term, duration: 28 days, Clinical Observation: Soft feces + Urinalysis: pH decrease + Hematology: PT increase, APTT increase + Blood Chemistry: T-CHO increase, T-BIL…
[4] = system: Mus musculus; conditions: oral, drinking water
[5] = system: Rattus norvegicus; conditions: oral; remark: listed apart in the source
[6] = subchronic, duration: 90 days, diet, M/F, reduced body weight
[7] = developmental, diet, M/F, increased body weight and liver weight, reduced ossification and slightly dilated ureters in fetuses, reduced offspring weight gain, total …
[8] = chronic, duration: 2 years, diet, M/F, reduced body weight
[9] = developmental, M/F, reduced pup survival
[10] = chronic, M/F, kidney damage and reduced lifespan
[11] = chronic, duration: 6 months, M, Kunming, novel object test (discrimination index) + open field (outer zone entry events)
[12] = chronic, duration: 6 months, M, Kunming, open field (center square entry events) + open field (middle zone line cross events)
[13] = chronic, duration: 6 months, drinking water, M/F, Sprague-Dawley, Morris water maze (escape time, acquisition, day 1)
[14] = developmental, drinking water, M/F, Wistar, generation: F1, F1: activity time (developmental phase III) + F1: open field (squares traveled, 9 min)

SMILES: CCCCOC(=O)COC(=O)c1ccccc1C(=O)OCCCC
- NOEL ([1]; chronic, no effects): 1000 mg/kg-day

SMILES: ClCC(Cl)(Cl)Cl [1,1,1,2-Tetrachloroethane]
- LOAEL ([1]; chronic, gavage, M/F, mineralization of the kidneys (males), hepatic clear cell change (females)): 125 mg/kg-day

SMILES: C1CSCCS1 [1,4-Dithiane]
- LOAEL ([1]; subchronic, duration: 90 days, gavage, M/F, nasal olfactory lesions): 105 mg/kg-day

SMILES: CCC(C)(C)c1ccc(O)c(C(C)(C)CC)c1 [2,4-Di-tert-pentylphenol]
- LD50 [2]: 920 mg/kg
- NOAEL ([3]; subchronic, M, Deaths + Clinical Observation: Salivation/100 Soft feces/100 + Body Weight Changes: Body weight gain decrease + Urinalysis: Volume increase…): 10 mg/kg-day

SMILES: CCC(C)c1cc(C(C)(C)C)c(O)c(C(C)(C)C)c1 (stereo not drawn) [4-(Butan-2-yl)-2,6-di-tert-butylphenol]
- LC50 [2]: 4800 mg/kg
- NOEL ([3]; F): < 15 mg/kg-day
- NOEL ([3]; M): 15 mg/kg-day

SMILES: NS(=O)(=O)[O-].[NH4+] [Ammonium sulfamate]
- LEL [1, 6]: 500 mg/kg-day
- NOEL [1, 6]: 250 mg/kg-day and 214 mg/kg-day

SMILES: COC(=O)NS(=O)(=O)c1ccc(N)cc1 [Asulam]
- LEL ([1]; reproduction developmental, F, reduced ovarian weight, lower liver/body weight): 50 mg/kg-day

SMILES: CCCCC(CC)COC(=O)CCCCC(=O)OCC(CC)CCCC (stereo not drawn) [Bis(2-ethylhexyl)hexanedioate]
- LOAEL [1, 7]: 1080 mg/kg-day
- NOAEL [1, 7]: 170 mg/kg-day

SMILES: CCCCN(CCCC)SN(C)C(=O)Oc1cccc2c1OC(C)(C)C2 [Carbosulfan]
- LEL [1, 8]: 25 mg/kg-day
- NOEL [1, 8]: 1 mg/kg-day

SMILES: COP(=O)(OC)O/C(C)=C/C(=O)N(C)C [Dicrotophos]
- LEL [1, 9]: 0.25 mg/kg-day
- NOEL [1, 9]: 0.1 mg/kg-day

SMILES: Cn1c(-c2ccccc2)cc(-c2ccccc2)[n+]1C [Difenzoquat]
- LEL [1, 8]: 125 mg/kg-day
- NOEL [1, 8]: 25 mg/kg-day

SMILES: CCOC(=O)COC(=O)c1ccccc1C(=O)OCC [Ethyl phthalyl ethyl glycolate]
- LOAEL [1, 10]: 2500 mg/kg-day
- NOEL [1, 10]: 250 mg/kg-day

SMILES: [F-] [Fluoride]
- LOEL ([4]; chronic, duration: 6 months, M/F, Kunming, active avoidance (shuttle box, 1st trial number where 3 consecutive conditioned avoidance responses occurred) + active avoidance (shuttle …): 2.63 mg/kg-day
- NOEL ([4]; chronic, duration: 6 months, M/F, Kunming, active avoidance (shuttle box, response latency to conditioned avoidance response averaged over 150 trials)): 26.3 mg/kg-day
- LOEL [4, 11]: 11.5 mg/kg-day
- NOEL [4, 11]: 5.63 mg/kg-day
- NOEL ([4]; chronic, duration: 6 months, M, Kunming, novel object test (time exploring familiar object, long-term memory phase) + novel object test (time exploring familiar object, short-term …): 11.5 mg/kg-day
- LOEL [4, 12]: 5.63 mg/kg-day
- NOEL [4, 12]: 2.82 mg/kg-day
- LOEL ([4]; chronic, duration: 6 months, M, Kunming, open field (middle zone entry events) + open field (outer zone line cross events) + open field (total distance moved)): 2.82 mg/kg-day
- LOEL ([4]; subchronic, duration: 90 days, M, Swiss, open field (defecation) + open field (grooming events) + open field (rearing events) + open field (squares crossed)): 9.58 mg/kg-day
- NOEL ([4]; subchronic, duration: 90 days, M, Swiss, tail suspension test (immobility time, total 6 min)): 9.58 mg/kg-day
- NOEL ([5]; chronic, duration: 4 months, diet, M, Hooded, T-maze, multiple (number of errors, acquisition, trial 1) + T-maze, multiple (number of errors, retention, trial 9) + T-maze, multiple (time…): 6.13 mg/kg-day
- LOEL [5, 13]: 5.96 mg/L urine
- NOEL [5, 13]: 2.59 mg/L urine
- NOEL ([5]; chronic, duration: 6 months, drinking water, M/F, Sprague-Dawley, Morris water maze (escape time, acquisition, day 5)): 5.96 mg/L urine
- NOEL (mg/kg ash femur) ([5]; chronic, duration: 8 months, drinking water, F, Sprague-Dawley, acquisition of the bar press response (days to reach learning criteria) + acquisition of the bar press response (maximum response)): 14800
- NOEL ([5]; chronic, duration: 16 weeks, drinking water, F, Sprague-Dawley, activity box (attention cluster, total time) + activity box (groom cluster, initiations) + activity box (groom cluster, total time) + …): 19 mg/kg-day
- LOEL ([5]; chronic, duration: 16 weeks, drinking water, F, Sprague-Dawley, activity box (groom/attention cluster initiations) + activity box (groom/attention cluster total time) + activity box (groom/explore cluster…): 19 mg/kg-day
- LOEL ([5]; chronic, duration: 16 weeks, drinking water, M, Sprague-Dawley, activity box (attention cluster, total time) + activity box (groom cluster, initiations) + activity box (groom cluster, total time) + …): 19 mg/kg-day
- NOEL ([5]; chronic, duration: 16 weeks, drinking water, M, Sprague-Dawley, activity box (groom/attention cluster, total time) + activity box (head turn, initiations) + activity box (head turn, total time)): 19 mg/kg-day
- NOEL ([5]; chronic, duration: 104 days, drinking water, M, Sprague-Dawley, Von Frey hair test (withdrawal threshold, day 0)): 20.8 mg/kg-day
- LOEL ([5]; chronic, duration: 104 days, drinking water, M, Sprague-Dawley, tail immersion (withdrawal latency to heat, day 112) + Von Frey hair test (withdrawal threshold, day 104)): 10.4 mg/kg-day
- NOEL ([5]; chronic, duration: 195 days, drinking water, M, Lou/C, tail immersion (withdrawal latency to heat, 195 days) + Von Frey hair test (withdrawal threshold, 195 days) + Von Frey hair test (withdrawal…): 20.8 mg/kg-day
- LOEL ([5]; developmental, drinking water, F, Wistar, generation: F1, F1: pain response (latency time to respond to hot plate)): 5.29 mg/kg-day
- LOEL ([5]; developmental, drinking water, M/F, Sprague-Dawley, generation: F1, F1: Morris water maze (escape time, acquisition, average over days 1-4) + F1: Morris water maze (platform crossing, probe test, day 5) + F1…): 3.27 mg/kg-day
- NOEL ([5]; developmental, drinking water, M/F, Wistar, generation: F1, F1: Morris water maze (number of errors, acquisition) + F1: Morris water maze (time to find platform, probe test)): 1.06 mg/kg-day
- LOEL ([5]; developmental, drinking water, M/F, Wistar, generation: F1, F1: Morris water maze (number of errors, acquisition) + F1: Morris water maze (time to find platform, probe test) + F1: open field (face …): 5.29 mg/kg-day
- LOEL ([5]; developmental, drinking water, M/F, Wistar, generation: F1, F1: T-maze (number of errors, retention phase) + F1: T-maze (number of sessions to reach learning criterion)): 16 mg/kg-day
- NOEL ([5]; developmental, drinking water, M/F, Wistar, generation: F1, F1: activity time (developmental phase I) + F1: activity time (developmental phase II) + F1: activity time (developmental phase III) + F1: …): 5.29 mg/kg-day
- LOEL [5, 14]: 1.06 mg/kg-day
- NOEL [5, 14]: 0.21 mg/kg-day
- LOEL ([5]; developmental, drinking water, M/F, Wistar, generation: F1, F1: open field (face scrubbing events, 9 min)): 0.21 mg/kg-day
- LOEL ([5]; developmental, drinking water, M/F, Wistar, generation: F2, F2: T-maze (number of errors, retention phase) + F2: T-maze (number of sessions to reach learning criterion)): 16 mg/kg-day
- LOEL ([5]; developmental, drinking water, M/F, Wistar, generation: F3, F3: T-maze (number of errors, retention phase) + F3: T-maze (number of sessions to reach learning criterion)): 16 mg/kg-day
- LOEL ([5]; developmental, drinking water, M, Wistar, generation: F1, F1: pain response (latency time to respond to hot plate)): 5.29 mg/kg-day
- NOEL ([5]; subchronic, duration: 6 weeks, drinking water, F, Sprague-Dawley, activity box (attention cluster, total time) + activity box (groom/attention cluster, total time) + activity box (groom/explore cluster, …): 21.4 mg/kg-day
- LOEL ([5]; subchronic, duration: 6 weeks, drinking water, F, Sprague-Dawley, activity box (groom cluster, initiations) + activity box (groom cluster, total time) + activity box (groom, initiations) + activity box (…): 21.4 mg/kg-day
- LOEL ([5]; subchronic, drinking water, M/F, Sprague-Dawley, generation: P0, P0: Morris water maze (escape time, acquisition, average over days 1-4) + P0: Morris water maze (platform crossing, probe test, day 5) + P0…): 3.27 mg/kg-day
